Data on 29 compounds can be found in US20260028365A1 (BIOGEN MA INC., priority 2022, published 2026).

The structures appear in SMILES notation. Counter-ions that a name gives are not always drawn. Like-named read-outs stand apart in the source and are kept apart here.

The target of one assay is Tyk2 (Homo sapiens (Human), UniProt P29597). Nature of the assay: pSTAT4 Cell Assay (MSD, NK92 cells). Format: cell-based.
The next assay addresses JH2 domain of human Tyk2 (Homo sapiens (Human), UniProt P29597). Kind of assay: JH2 Biochemical Assay (TR-FRET probe displacement). Format: binding. (TR-FRET usually uses a lanthanide donor and a delayed reading to cut background.)
Where [1] appears, read: TR-FRET probe displacement, JH2 domain of human Tyk2.
Setting [2] is: TR-FRET probe displacement, JH2 domain.
The mark [3] stands for this setting: JH2 domain of human Tyk2, TR-FRET probe displacement.

As usually defined, the IC50 is the concentration at which inhibition is half-maximal. The low end stands for inhibition by little substance, the high end for a need for much substance.

Sequence of Tyk2 (P29597 whole entry, the tested form may be a part): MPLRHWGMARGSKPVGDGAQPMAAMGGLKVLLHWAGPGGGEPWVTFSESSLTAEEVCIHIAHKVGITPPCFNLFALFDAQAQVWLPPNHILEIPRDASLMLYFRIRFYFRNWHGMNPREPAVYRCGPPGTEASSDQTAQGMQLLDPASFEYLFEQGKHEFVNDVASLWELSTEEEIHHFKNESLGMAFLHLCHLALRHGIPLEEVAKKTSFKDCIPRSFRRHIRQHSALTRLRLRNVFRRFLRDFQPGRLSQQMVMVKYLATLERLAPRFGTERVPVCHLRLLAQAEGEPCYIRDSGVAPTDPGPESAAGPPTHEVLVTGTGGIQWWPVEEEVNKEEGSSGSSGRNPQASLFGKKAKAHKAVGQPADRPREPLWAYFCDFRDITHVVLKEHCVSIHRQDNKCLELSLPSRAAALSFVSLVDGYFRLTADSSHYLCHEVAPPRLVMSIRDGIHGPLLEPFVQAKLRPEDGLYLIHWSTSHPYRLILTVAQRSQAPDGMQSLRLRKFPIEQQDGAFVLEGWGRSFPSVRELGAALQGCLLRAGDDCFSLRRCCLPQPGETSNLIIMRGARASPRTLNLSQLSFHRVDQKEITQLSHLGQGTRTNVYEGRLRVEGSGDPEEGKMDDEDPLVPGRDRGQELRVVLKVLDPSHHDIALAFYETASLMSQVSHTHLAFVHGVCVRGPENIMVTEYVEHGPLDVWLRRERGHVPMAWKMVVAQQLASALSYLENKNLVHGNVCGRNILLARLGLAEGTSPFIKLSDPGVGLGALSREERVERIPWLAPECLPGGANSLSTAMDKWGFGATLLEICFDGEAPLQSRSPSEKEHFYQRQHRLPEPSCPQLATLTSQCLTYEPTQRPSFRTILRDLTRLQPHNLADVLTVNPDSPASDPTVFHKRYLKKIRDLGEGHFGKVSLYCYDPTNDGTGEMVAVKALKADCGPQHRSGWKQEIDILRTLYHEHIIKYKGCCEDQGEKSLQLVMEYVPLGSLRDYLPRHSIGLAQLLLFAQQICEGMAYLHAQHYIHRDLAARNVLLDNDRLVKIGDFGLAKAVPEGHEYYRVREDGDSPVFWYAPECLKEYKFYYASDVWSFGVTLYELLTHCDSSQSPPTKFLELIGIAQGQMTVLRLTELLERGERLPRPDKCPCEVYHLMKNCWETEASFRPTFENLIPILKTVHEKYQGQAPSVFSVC
Sequence of JH2 domain of human Tyk2 (P29597 575-876): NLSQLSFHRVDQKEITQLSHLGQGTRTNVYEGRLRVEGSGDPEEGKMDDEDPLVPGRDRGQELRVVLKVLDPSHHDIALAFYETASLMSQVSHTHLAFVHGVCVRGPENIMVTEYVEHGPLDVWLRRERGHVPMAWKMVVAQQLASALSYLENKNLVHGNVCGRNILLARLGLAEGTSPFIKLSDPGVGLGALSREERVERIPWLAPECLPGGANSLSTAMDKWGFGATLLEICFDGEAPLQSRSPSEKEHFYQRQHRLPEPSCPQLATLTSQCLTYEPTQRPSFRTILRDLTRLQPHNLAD

Turning to `CC(=O)Nc1cc(Nc2cc(C)nc(C(C)(F)F)n2)c(OC(C)C2CC2)cn1` (stereo not shown) [Example 83, N-(5-(1-cyclopropylethoxy)-4-((2-(1,1-difluoroethyl)-6-methylpyrimidin-4-yl)amino)pyridin-2-yl)acetamide], the IC50 against Tyk2 (MSD) was 100 to 1000 nM; at JH2 domain of human Tyk2 (setting [1]), at most 10 nM.

As to `CC(=O)Nc1cc(Nc2cc(C)nc(C(C)(F)F)n2)c(-c2cc(F)n(C)n2)cn1` [Example 814, N-(4-((2-(1,1-difluoroethyl)-6-methylpyrimidin-4-yl)amino)-5-(5-fluoro-1-methyl-1H-pyrazol-3-yl)pyridin-2-yl)acetamide], the IC50 against Tyk2 and on JH2 domain of human Tyk2 (setting [2]) was at most 10 nM in each case.

With `CC(=O)Nc1cc(Nc2cc(C)nc(C(C)(F)F)n2)c(OCC2(F)COC2)cn1` [Example 483, N-(4-((2-(1,1-difluoroethyl)-6-methylpyrimidin-4-yl)amino)-5-((3-fluorooxetan-3-yl)methoxy)pyridin-2-yl)acetamide], the half-maximal inhibitory concentration (IC50) against Tyk2 (MSD) was 10 to 100 nM; on JH2 domain of human Tyk2 (setting [3]), at most 10 nM.

For `CC(=O)Nc1cc(Nc2cc(C)nc(C(C)(F)F)n2)c(-c2nnc(N(C)C)s2)cn1` [Example 236, N-(4-((2-(1,1-difluoroethyl)-6-methylpyrimidin-4-yl)amino)-5-(5-(dimethylamino)-1,3,4-thiadiazol-2-yl)pyridin-2-yl)acetamide], the concentration for half-maximal inhibition (IC50) at Tyk2 (MSD) and on JH2 domain of human Tyk2 (setting [1]) was at most 10 nM each time.

Regarding `CC(=O)Nc1cc(Nc2ccnc(C(C)(F)F)n2)c(OC2CC2)cn1` [Example 38, N-(5-cyclopropoxy-4-((2-(1,1-difluoroethyl)pyrimidin-4-yl)amino)pyridin-2-yl)acetamide], the IC50 was 100 to 1000 nM against Tyk2 (MSD) and at most 10 nM at JH2 domain of human Tyk2 (setting [1]).

`CC(=O)Nc1cc(Nc2cc(C)nc(C(C)(F)F)n2)c(-c2ncc(Cl)cn2)cn1` [Example 669, N-(5-(5-chloropyrimidin-2-yl)-4-((2-(1,1-difluoroethyl)-6-methylpyrimidin-4-yl)amino)pyridin-2-yl)acetamide]: the IC50 against Tyk2 (MSD) is 10 to 100 nM; at JH2 domain of human Tyk2 (setting [3]) it was at most 10 nM.

`COc1cnc(NC(C)=O)cc1Nc1cc(-c2cc(OC)c3nc(C)cn3c2)nc(C(C)(F)F)n1` [Example 401, N-(4-((2-(1,1-difluoroethyl)-6-(8-methoxy-2-methylimidazo[1,2-a]pyridin-6-yl)pyrimidin-4-yl)amino)-5-methoxypyridin-2-yl)acetamide]: the values for the half-inhibitory concentration (IC50) on Tyk2 (MSD) and at JH2 domain of human Tyk2 (setting [3]) were 100 to 1000 nM and at most 10 nM, respectively.

`CC(=O)Nc1cc(Nc2cc(C)nc(C(C)(F)F)n2)c(-c2csc(N3CCOCC3)n2)cn1` [Example 234, N-(4-((2-(1,1-difluoroethyl)-6-methylpyrimidin-4-yl)amino)-5-(2-morpholinothiazol-4-yl)pyridin-2-yl)acetamide]: the IC50 against Tyk2 (MSD) and on JH2 domain of human Tyk2 (setting [1]) was at most 10 nM each time.

For `COc1ccc(-c2cnc(NC(C)=O)cc2Nc2cc(C)nc(C(C)(F)F)n2)nc1OC` [Example 637, N-(4′-((2-(1,1-difluoroethyl)-6-methylpyrimidin-4-yl)amino)-5,6-dimethoxy-[2,3′-bipyridin]-6′-yl)acetamide], the 50% inhibitory concentration (IC50) against Tyk2 (MSD) and on JH2 domain of human Tyk2 (setting [3]) was at most 10 nM each time.

Take `CCOc1cnc(NC(C)=O)cc1Nc1cc(O[C@H]2C[C@@H](OC)C2)cc(C(C)(F)F)n1` [Example 15, N-(4-((6-(1,1-difluoroethyl)-4-((1s,3s)-3-methoxycyclobutoxy)pyridin-2-yl)amino)-5-ethoxypyridin-2-yl)acetamide]: the IC50 against Tyk2 (MSD) was 10 to 100 nM; on JH2 domain of human Tyk2 (setting [1]) it was at most 10 nM.

With `CC(=O)Nc1cc(Nc2cc(C)nc(C34CC(CO3)C4)n2)c(-c2ccc(COC(F)F)cn2)cn1` [Example 142, N-(4′-((2-(2-oxabicyclo[2.1.1]hexan-1-yl)-6-methylpyrimidin-4-yl)amino)-5-((difluoromethoxy)methyl)-[2,3′-bipyridin]-6′-yl)acetamide], the half-maximal inhibitory concentration (IC50) against Tyk2 (MSD) was 10 to 100 nM; on JH2 domain of human Tyk2 (setting [1]), at most 10 nM.

Regarding `CC(=O)Nc1cc(Nc2ccnc(C(C)(F)F)n2)c(-c2csc(N3CC4(COC4)C3)n2)cn1` [Example 789, N-(5-(2-(2-oxa-6-azaspiro[3.3]heptan-6-yl)thiazol-4-yl)-4-((2-(1,1-difluoroethyl)pyrimidin-4-yl)amino)pyridin-2-yl)acetamide], the half-maximal inhibitory concentration (IC50) on Tyk2 and on JH2 domain of human Tyk2 (setting [2]) was at most 10 nM throughout.

Consider `CC(=O)Nc1cc(Nc2cc(C)nc(C(C)(F)F)n2)c(Oc2cncc(C)n2)cn1` [Example 98, N-(4-((2-(1,1-difluoroethyl)-6-methylpyrimidin-4-yl)amino)-5-((6-methylpyrazin-2-yl)oxy)pyridin-2-yl)acetamide], for which the IC50 against Tyk2 (MSD) and at JH2 domain of human Tyk2 (setting [1]) was at least 1000 nM throughout.

For the compound `CC(=O)Nc1cc(Nc2cc(C)nc(C(C)(F)F)n2)c(-c2cncc(C3CC3)n2)cn1` [Example 667, N-(5-(6-cyclopropylpyrazin-2-yl)-4-((2-(1,1-difluoroethyl)-6-methylpyrimidin-4-yl)amino)pyridin-2-yl)acetamide], the values for the concentration for half-maximal inhibition (IC50) at Tyk2 (MSD) and at JH2 domain of human Tyk2 (setting [3]) were 10 to 100 nM and at most 10 nM, respectively.

As for `CCCn1ccc(-c2cnc(NC(C)=O)cc2Nc2cc(C)nc(C(C)(F)F)n2)n1` [Example 615, N-(4-((2-(1,1-difluoroethyl)-6-methylpyrimidin-4-yl)amino)-5-(1-propyl-1H-pyrazol-3-yl)pyridin-2-yl)acetamide], the half-maximal inhibitory concentration (IC50) on Tyk2 (MSD) and at JH2 domain of human Tyk2 (setting [3]) was at most 10 nM in each case.

On to `COC1(C)CN(c2ccc(-c3cnc(NC(C)=O)cc3Nc3ccnc(C(C)(F)F)n3)nn2)C1` [Example 874, N-(4-((2-(1,1-difluoroethyl)pyrimidin-4-yl)amino)-5-(6-(3-methoxy-3-methylazetidin-1-yl)pyridazin-3-yl)pyridin-2-yl)acetamide], for which the IC50 against Tyk2 and at JH2 domain of human Tyk2 (setting [2]) was at most 10 nM throughout.

Turning to `CC(=O)Nc1cc(Nc2cc(C)nc(C(C)(F)F)n2)c(-c2ncc(C(F)F)cn2)cn1` [Example 670, N-(4-((2-(1,1-difluoroethyl)-6-methylpyrimidin-4-yl)amino)-5-(5-(difluoromethyl)pyrimidin-2-yl)pyridin-2-yl)acetamide], the values for the half-maximal inhibitory concentration (IC50) on Tyk2 (MSD) and on JH2 domain of human Tyk2 (setting [3]) were 10 to 100 nM and at most 10 nM, respectively.

Take `CC(=O)Nc1cc(Nc2cc(C)nc(C(C)(F)F)n2)c(OCC2CN(C(C)C)CCO2)cn1` (stereo not shown) [Example 503, N-(4-((2-(1,1-difluoroethyl)-6-methylpyrimidin-4-yl)amino)-5-((4-isopropylmorpholin-2-yl)methoxy)pyridin-2-yl)acetamide]: the half-inhibitory concentration (IC50) was 10 to 100 nM against Tyk2 (MSD) and at most 10 nM on JH2 domain of human Tyk2 (setting [3]).

On to `CC(=O)Nc1cc(Nc2cc(C)nc(C(C)(F)F)n2)c(OCC2(F)CC2)cn1` [Example 99, N-(4-((2-(1,1-difluoroethyl)-6-methylpyrimidin-4-yl)amino)-5-((1-fluorocyclopropyl)methoxy)pyridin-2-yl)acetamide], for which the IC50 against Tyk2 (MSD) and at JH2 domain of human Tyk2 (setting [1]) was at most 10 nM throughout.

For the compound `CC(=O)Nc1cc(Nc2cc(C)nc(C(C)(F)F)n2)c(-c2cccc(C#N)n2)cn1` [Example 630, N-(6-cyanO4′-((2-(1,1-difluoroethyl)-6-methylpyrimidin-4-yl)amino)-[2,3′-bipyridin]-6′-yl)acetamide], the IC50 at Tyk2 (MSD) and on JH2 domain of human Tyk2 (setting [3]) was at most 10 nM in each case.

On to `COc1cnc(NC(C)=O)cc1Nc1cc(-c2cc(C#N)c3nc(C)cn3c2)nc(C(C)(F)F)n1` [Example 402, N-(4-((6-(8-cyano-2-methylimidazo[1,2-a]pyridin-6-yl)-2-(1,1-difluoroethyl)pyrimidin-4-yl)amino)-5-methoxypyridin-2-yl)acetamide], for which the 50% inhibitory concentration (IC50) at Tyk2 (MSD) was in the range of 100 to 1000 nM; on JH2 domain of human Tyk2 (setting [3]), 10 to 100 nM.

Turning to `CC(=O)Nc1cc(Nc2cc(C)nc(C(C)(F)F)n2)c(-c2ccc(C)cn2)cn1` [Example 593, N-(4′-((2-(1,1-difluoroethyl)-6-methylpyrimidin-4-yl)amino)-5-methyl-[2,3′-bipyridin]-6′-yl)acetamide], the IC50 on Tyk2 (MSD) and on JH2 domain of human Tyk2 (setting [3]) was at most 10 nM in each case.

`COc1cc(Nc2cc(NC(C)=O)ncc2-c2ncc(F)cn2)nc(C(C)(F)F)c1` [Example 191, N-(4-((6-(1,1-difluoroethyl)-4-methoxypyridin-2-yl)amino)-5-(5-fluoropyrimidin-2-yl)pyridin-2-yl)acetamide]: the IC50 at Tyk2 (MSD) was 10 to 100 nM; on JH2 domain of human Tyk2 (setting [1]), at most 10 nM.

As to `CC(=O)Nc1cc(Nc2cc(C)nc(C(C)(F)F)n2)c(OCC2COCC(C)(C)O2)cn1` (stereo not shown) [Example 419, N-(4-((2-(1,1-difluoroethyl)-6-methylpyrimidin-4-yl)amino)-5-((6,6-dimethyl-1,4-dioxan-2-yl)methoxy)pyridin-2-yl)acetamide], the concentration for half-maximal inhibition (IC50) on Tyk2 (MSD) and on JH2 domain of human Tyk2 (setting [3]) was at most 10 nM each time.

As to `CC(=O)Nc1cc(Nc2cccc(C(C)(F)F)n2)c(-c2ccn(C)c(=O)n2)cn1` [Example 160, N-(4-((6-(1,1-difluoroethyl)pyridin-2-yl)amino)-5-(1-methyl-2-oxo-1,2-dihydropyrimidin-4-yl)pyridin-2-yl)acetamide], the half-inhibitory concentration (IC50) against Tyk2 (MSD) and on JH2 domain of human Tyk2 (setting [1]) was at most 10 nM throughout.

In the case of `CCOc1cnc(NC(C)=O)cc1Nc1cc(C(C)(F)F)ccn1` [Example 2, N-(4-((4-(1,1-difluoroethyl)pyridin-2-yl)amino)-5-ethoxypyridin-2-yl)acetamide], the half-inhibitory concentration (IC50) is at least 1000 nM on Tyk2 (MSD) and 10 to 100 nM at JH2 domain of human Tyk2 (setting [1]).

As for `CC(=O)Nc1cc(Nc2ccnc(C(C)(F)F)n2)c(-c2cc3n(n2)CCOC3)cn1` [Example 529, N-(4-((2-(1,1-difluoroethyl)pyrimidin-4-yl)amino)-5-(6,7-dihydrO4H-pyrazolo[5,1-c][1,4]oxazin-2-yl)pyridin-2-yl)acetamide], the IC50 against Tyk2 (MSD) and on JH2 domain of human Tyk2 (setting [3]) was at most 10 nM in each case.

`CCc1cc(Nc2cc(NC(C)=O)ncc2-c2ccc(OCCOC)nn2)nc(C(C)(F)F)n1` [Example 269, N-(4-((2-(1,1-difluoroethyl)-6-ethylpyrimidin-4-yl)amino)-5-(6-(2-methoxyethoxy)pyridazin-3-yl)pyridin-2-yl)acetamide trifluoroacetate]: the half-inhibitory concentration (IC50) at Tyk2 (MSD) and on JH2 domain of human Tyk2 (setting [1]) was at most 10 nM throughout.

`COCCOc1cnc(NC(C)=O)cc1Nc1nc(C)cc(C(C)(F)F)n1` [Example 78]: the figures for the 50% inhibitory concentration (IC50) at Tyk2 (MSD) and at JH2 domain of human Tyk2 (setting [1]) were 10 to 100 nM and at most 10 nM, respectively.
